Holding throughout (test): relative viability (nuclei count vs DMSO), 5 days (fraction); higher = more cells survive
Compound in the experiment “BAY61-3606 + OSI-027”: COC1=C(C=C(C=C1)C2=CC3=NC=CN3C(=N2)NC4=C(C=CC=N4)C(=O)N)OC [BAY61-3606] + COc1cccc2cc(-c3nc([C@H]4CC[C@H](C(=O)O)CC4)n4ncnc(N)c34)[nH]c12 [OSI-027] (partner 0.5 µM)
The method, boiled down: (§1)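 Lung cancer cell lines were pin-tool dosed in 1536-well plates on the day after seeding, with either a lone drug or a fixed anchor-drug dose plus five library-drug doses (not always all listed) in √10 steps. Nuclei were counted on 4× images after 5 days. Relative viability is the ratio of treated-well to vehicle-well nuclei counts, with each value a median of duplicate plates.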

Compound in the experiment “Doxorubicin + Tozasertib”: COc1cccc2c1C(=O)c1c(O)c3c(c(O)c1C2=O)C[C@@](O)(C(=O)CO)C[C@@H]3O[C@H]1C[C@H](N)[C@H](O)[C@H](C)O1 [Doxorubicin] + Cc1cc(Nc2cc(N3CCN(C)CC3)nc(Sc3ccc(NC(=O)C4CC4)cc3)n2)n[nH]1 [Tozasertib] (partner 0.1 µM)
The essentials: as §1

Compound in the experiment “BAY61-3606 + Navitoclax”: COC1=C(C=C(C=C1)C2=CC3=NC=CN3C(=N2)NC4=C(C=CC=N4)C(=O)N)OC [BAY61-3606] + CC1(C)CCC(c2ccc(Cl)cc2)=C(CN2CCN(c3ccc(C(=O)NS(=O)(=O)c4ccc(N[C@H](CCN5CCOCC5)CSc5ccccc5)c(S(=O)(=O)C(F)(F)F)c4)cc3)CC2)C1 [Navitoclax] (partner 0.5 µM)
The method, boiled down: as §1

Compound in the experiment “Doxorubicin + Linsitinib”: COc1cccc2c1C(=O)c1c(O)c3c(c(O)c1C2=O)C[C@@](O)(C(=O)CO)C[C@@H]3O[C@H]1C[C@H](N)[C@H](O)[C@H](C)O1 [Doxorubicin] + C[C@]1(O)C[C@@H](c2nc(-c3ccc4ccc(-c5ccccc5)nc4c3)c3c(N)nccn32)C1 [Linsitinib] (partner 1 µM)
The essentials:
as §1

Turning to UMC-11, the relative viability turned out to be 0.544 in the experiment with BAY61-3606 + OSI-027 (first compound 0.02 µM); 0.467 with BAY61-3606 + OSI-027 (first compound 0.06325 µM); 0.476 with BAY61-3606 + OSI-027 (first compound 0.2 µM); 0.461 with BAY61-3606 + OSI-027 (first compound 0.6325 µM); 0.375 with BAY61-3606 + OSI-027 (first compound 2 µM); 0.22 with Doxorubicin + Tozasertib (first compound 0.001 µM). In addition, the relative viability in the experiment with Doxorubicin + Tozasertib (first compound 0.003162 µM) was determined as 0.215; in the experiment with Doxorubicin + Tozasertib (first compound 0.01 µM) it was 0.209; with Doxorubicin + Tozasertib (first compound 0.03162 µM), 0.21; with Doxorubicin + Tozasertib (first compound 0.1 µM), 0.208; with BAY61-3606 + Navitoclax (first compound 0.02 µM), 0.339; with BAY61-3606 + Navitoclax (first compound 0.06325 µM) it was 0.324. In addition, the relative viability in the experiment with BAY61-3606 + Navitoclax (first compound 0.2 µM) stood at 0.309; with BAY61-3606 + Navitoclax (first compound 0.6325 µM), 0.344; with BAY61-3606 + Navitoclax (first compound 2 µM) it was 0.164; with Doxorubicin + Linsitinib (first compound 0.001 µM) it was 1.1; in the experiment with Doxorubicin + Linsitinib (first compound 0.003162 µM), 1.13; in the experiment with Doxorubicin + Linsitinib (first compound 0.01 µM) it was 1.09. For the same cell line, the relative viability amounted to 0.803 with Doxorubicin + Linsitinib (first compound 0.03162 µM) and 0.875 with Doxorubicin + Linsitinib (first compound 0.1 µM).

These data come from the supplement of paper PMC10307832.
